Values joined by “and” are separate entries in the source; they are usually repeats but may differ in a detail not shown here. Identical values can stand only once.
Key:
[1] = Tolerability of daily IL-2 doses in earlier studies of the applicant; assay type: in vivo
Method: a) IL-2: The initial dose of IL-2 used in this study is based on our studies in HIV infection. Individuals with HIV were able to tolerate rIL-2 at 1.2×10^6 IU/m^2/day. […] Peak plasma levels are measured at two hours after initial IL-2 injection. Dosage adjustments of IL-2 are made under the following circumstances:
(1) IL-2 Dosage reduction: If a subject experiences WHO grade I systemic toxicity, and is unable to tolerate the daily dose of rIL-2 at 1.2×10^6 IU/m^2/day, the dose is reduced to 0.9×10^6 IU/m^2/day. In the event that toxicity continues, the dose is decreased to 0.75 IU/m^2/day, which is halfway between the previous dose and the dose we have previously determined to be ineffective (0.6 IU/m^2/d).
This dose is midway between the starting dose and the dose found to be toxic in 100% of patients (2.4×10^6 IU /m^2/d). In the event that toxicity occurs, the dose is adjusted to 1.4×10^6 IU 1m^2/day, and if there is still toxicity, the dose will be returned to 1.2×10^6 IU /m^2/day.

HIV infection = assay: Daily IL-2 in conjunction with HAART in HIV infection (earlier experience); assay type: in vivo, human; details: after 6 months of IL-2 therapy
From the text: Daily low-dose IL-2 therapy served to correct the deficiency in CD4+ T cells, while maintaining the high frequency of CD8+ HIV-specific CTL, and increasing the circulating NK cells.

plasma HIV RNA = assay: Plasma HIV RNA (branched chain DNA assay) after cessation of PART with continued low-dose IL-2; assay type: in vivo; details: for Increasing HIV Dbl time: IL-2 250,000 U/m^2 daily continued; for Max. Decrease (log): peak to trough
Method: The parameters monitored throughout the study included the time to the onset of viremia, the rate of viremic increase, the peak plasma virus concentration and the rapidity and completeness of the disappearance of viremia.
Prior to the discontinuation of PART, at least 3 months of daily, low-dose (250,000 U/m^2) subcutaneous IL-2 (R-Met-HU IL2-Ala-125, Amgen, Thousand Oaks, Calif.) immuno-stimulatory therapy were administered as described in Jacobsen, E L et al., Proc Natl Acad Sci USA 93:10405-10 (1996). In addition, to ensure the safest possible immune parameters for the discontinuation of PART, IL-2 immuno-stimulation was continued after the anti-viral drugs were withdrawn. […] All subjects had undetectable plasma virus during this interval.
Subsequent to the discontinuation of PART, plasma HIV was monitored twice weekly. Plasma HIV RNA concentrations were determined on EDTA anti-coagulated plasma samples, which were frozen (−70° C.) within 3 hours of phlebotomy. Samples were assayed by Bayer Diagnostics, Emeryville, Calif. Lymphocyte subsets were determined on fresh blood samples by flow cytometry using subset-specific monoclonal antibodies and a FACSCaliber from Becton-Dickinson, San, Jose, Calif. by standard procedures according to the manufacturer. All subjects eventually experienced a relapse of viremia The onset of viremia in each subject was taken as t=day 1. The mean time interval until plasma virus once again became detectable was 19±3 (SEM) days (range 14-39 days). Once detectable, the plasma virus concentration increased progressively over 2.5 weeks, reaching a mean peak of 375,101±229,139 (SEM) (log10=5.15±0.21) HIV RNA molecules/ml. Thereafter, the virus concentration decreased progressively over the next 4-6 weeks, reaching an apparent trough defined as at least 4 successive measures of HIV RNA that varied less than 3-fold. By 6 weeks from the onset of the viremia, the mean virus concentration had decreased to 31,707±11,851 (SEM) (log10=4.21±0.19) HIV RNA molecules/ml, a drop from the peak viral concentration by an order of magnitude.

[2] = after cessation of PART, IL-2 continued, subject #1-9, mean
[3] = after cessation of PART, IL-2 continued, subject #1-9, mean, mean
[4] = second treatment interruption, 4 subjects

Substance: Interleukin-2 [IL-2]
- patients in whom the dose was toxic ([1]; 2.4×10^6 IU /m^2/d): 100%
- dose previously determined to be ineffective ([1]; in vivo): 0.6 IU/m^2/d
- tolerated daily dose ([1]; individuals with HIV): 1.2×10^6 IU/m^2/day
- Delayed Type Hypersensitivity (DTH) to common environmental antigens (HIV infection): more than doubled
- peak plasma HIV RNA after the first interruption (plasma HIV RNA; 3 of 4 individuals): 5.53±0.54 log10 HIV RNA molecules/ml
- peak plasma HIV RNA after the second interruption (plasma HIV RNA; 3 of 4 individuals): 4.27±0.27 log10 HIV RNA molecules/ml
- peak plasma HIV RNA lower after second than first interruption (plasma HIV RNA; 3 of 4 individuals): 1.26±0.14 log10 HIV RNA molecules/ml
- Increasing HIV Dbl time (plasma HIV RNA; after cessation of PART, subject #1-9, mean): 2.7 days and 1.3 days and 1.0 days and 2.0 days (2×) and 1.6 days (3×) and 1.2 days
- Increasing HIV Dbl time (plasma HIV RNA; after cessation of PART, subject #1-9, mean, mean): 1.6 days
- Decreasing HIV Time to Min. (plasma HIV RNA; [2]): 9 days and 28 days and 24 days and 7 days and 26 days (2×) and 10 days and 17 days and 18 days
- Increasing HIV Days to Peak (plasma HIV RNA; [2]): 28 days and 14 days (3×) and 21 days and 16 days (2×) and 18 days and 10 days
- Peak HIV # (plasma HIV RNA; [2]): 375,101±229,139 HIV RNA molecules/ml and 230,074 HIV RNA molecules/ml and 14059 HIV RNA molecules/ml and 40662 HIV RNA molecules/ml and 295942 HIV RNA molecules/ml and 160949 HIV RNA molecules/ml and 2185670 HIV RNA molecules/ml and 300203 HIV RNA molecules/ml and 375101 HIV RNA molecules/ml and 80910 HIV RNA molecules/ml and 230074 HIV RNA molecules/ml and 67442 HIV RNA molecules/ml
- Peak HIV (log) (plasma HIV RNA; [2]): 5.15±0.21 log and (4.15) log and (4.61) log and (5.47) log and (5.21) log and (6.34) log and (5.48) log and (5.15) log and (4.91) log and (5.36) log and (4.83) log
- Trough HIV (log) (plasma HIV RNA; [2]): 4.21±0.19 log and (3.96) log and (4.36) log and (4.69) log and (4.93) log and (4.97) log and (4.21) log and (3.68) log and (4.00) log and (3.36) log
- Trough HIV # (plasma HIV RNA; after cessation of PART, IL-2 continued, subject #1-9, mean (by 6 weeks from onset of viremia)): 31,707±11,851 HIV RNA molecules/ml and 9215 HIV RNA molecules/ml and 9180 HIV RNA molecules/ml and 22695 HIV RNA molecules/ml and 48562 HIV RNA molecules/ml and 85782 HIV RNA molecules/ml and 92901 HIV RNA molecules/ml and 31707 HIV RNA molecules/ml and 4741 HIV RNA molecules/ml and 10024 HIV RNA molecules/ml and 2266 HIV RNA molecules/ml
- Decreasing HIV Time to Min. (plasma HIV RNA; [3]): 18 days
- Increasing HIV Days to Peak (plasma HIV RNA; [3]): 17 days
- time interval until plasma virus once again became detectable (plasma HIV RNA; after discontinuation of PART, 9 subjects, mean ± SEM and range): 19 ± 3 days and 14 to 39 days
- Decreasing HIV T ½ (plasma HIV RNA; first 10 days after peak, IL-2 continued, subject #1-9, mean): 84 ± 17 h and 182 h and 125 h and 132 h and 81.6 h and 38.4 h and 93.6 h and 84 h and 36 h and 43.2 h
- Max. Decrease (log) (plasma HIV RNA; subject #1-9, mean): 0.19 log and 0.65 log and 1.11 log and 0.52 log and 1.41 log and 0.51 log and 1.23 log and 1.36 log and 1.47 log
- Max. Decrease (log) (plasma HIV RNA; subject #1-9, mean, mean): 0.94 log
- latent period to detectable viremia (plasma HIV RNA; [4]): 14.5 ± 4.1 days
- rate of doubling (t½) (plasma HIV RNA; [4]): 36 ± 7.2 h
- days plasma HIV RNA undetectable after discontinuation of PART (plasma HIV RNA; subject D3): 39 days
- plasma HIV RNA after 98 days as % of the peak viral concentration (plasma HIV RNA; subject D3): < 1%
- plasma HIV RNA after 98 days without PART (plasma HIV RNA; subject D3): 1,686 HIV RNA molecules/ml
- mean magnitude of decline of plasma HIV, rapid rate subjects (plasma HIV RNA; subjects #1, 2, 3, 8): 1.37±0.05 log10 HIV RNA molecules/ml
- t ½ of viral decline, subjects with rapid rate (plasma HIV RNA; subjects #1, 2, 3, 8): 38.4 ± 2.4 h
- magnitude of decline of plasma HIV, slower rate subjects (plasma HIV RNA; subjects #4, 5, 6, 7, 9): 0.59±0.15 log10 HIV RNA molecules/ml
- mean t ½ of viral decline, subjects with slow rate (plasma HIV RNA; subjects #4, 5, 6, 7, 9): 122 ± 17 h

Reference: patent US6921530B1, “Low dose IL-2 for potentiation of immunity” (Cornell Research Foundation, Inc., priority 1999, dated 2005)
